Consider three compounds from patent EP0165696A2, “Improved transdermal dosage form” (priority 1984, dated 1985).

As a reminder, the solubility (thermodynamic) is the concentration in solution at equilibrium with solid.

The nature of data set [1]: In vitro penetration of drug across cadaver skin, modified Franz diffusion cell. Type of data set: in vitro ADME, human.
Description: The rate of penetration and lag time are determined by studying in vitro the penetration of the drug across cadaver skin, hairless mouse skin or other suitable membrane.
A measured portion of each of the formulations 1A-E was applied to the surface of the cadaver skin. The appearance of drug on the dermal side was monitored quantitatively over six days.
Using formulation 2B, four skin samples from the same person were used to determine the average flux. Using formulation 2C, skin samples from four different people were used to determine the average flux.
All formulations were gelled using 6.5 percent by weight of sodium stearate.
A measured portion of each formulation,8A & B, was applied to the surface of the cadaver skin. The appearance of drug on the dermal side was monitored quantitatively over six days.
Data set [2] can be described thus: Equilibrium solubility of active ingredients in solvents. Type of data set: physicochemical. Particulars: organic solvent or mixture, 34 °C. As to the method: An exact amount of saturated solution is withdrawn into a volumetric flask while maintaining temperature. The saturated solution is diluted in suitable solvent and the content of active ingredient measured by high pressure liquid chromatography or other suitable analytical method.

The structures appear in SMILES notation. Converted amounts (≈) assume the structure as drawn.

In the case of `C#C[C@]1(O)CC[C@H]2[C@@H]3CCC4=CC(=O)CC[C@@H]4[C@H]3CC[C@@]21CC` [Levo-norgestrel], the “rate of penetration enhanced” value in data set [1] (levonorgestrel, by 10 weight percent of propylene glycol and glycerine combination) amounted to 2.7 times.
As to `C[C@]12CC[C@@H]3c4ccc(O)cc4CC[C@H]3[C@@H]1CC[C@@H]2O` [17-beta-estradiol], in data set [1] (mixed solvent system compared to the pure solvents alone, cadaver skin), the “increase in rate of penetration” value lay within 3 to 4 times.
With `N=C(N)N/N=C/c1c(Cl)cccc1Cl` [Guanabenz], the thermodynamic solubility in data set [2] (35/65 propylene glycol/glycerine, 35/65PG/Gly) amounted to 21.2 mg/mL (≈ 91.7 mM); in data set [2] (50/50 propylene glycol/glycerine, 50/50PG/Gly), 29.4 mg/mL (≈ 127 mM); in data set [2] (Glycerine), 7.97 mg/mL (≈ 34.5 mM); in data set [2] (Propylene Glycol), 47 mg/mL (≈ 203 mM).
